Data on four compounds can be found in patent US4419364A, “Bronchospasmolytic carbamate derivatives” (priority 1980, dated 1983).

In general, ED50 refers to the dose at which the effect has come halfway, by size or by number of responders.

Several values for one entry are separate records, joined by “and”; a condition that tells them apart may be missing. Equal entries are not always repeated. Entries after “also recorded” stand apart in the source; their conditions may differ. Structures can show the parent of a compound that is named as a salt. Where two headings read alike, the source gives them in different places.

The conditions of data set [1]: cited from earlier work; for Duration of bronchospasmolytic activity, in words: relative to a marketed comparator.
A short description of data set [2]: In vitro test on isolated guinea-pig auricles (chronotropic and inotropic effect). To be noted: guinea pig, isolated auricles; relative values; eserine 1·10^-6 mol/l; read-out: Chronotropic effect on isolated auricle (relative values). Also noted: species or system guinea-pig (Dunkin Hartley, male). The protocol:
(§1) Male guinea-pigs strain Dunkin Hartley (400-500 g) were used. After bleeding and removal of the heart the auricles were dissected free from the ventricular part and submerged into carbogen aerated Krebs solution of 37°. The frequency and force of the spontaneously beating preparation was recorded by a Grass transducer FT03. In the polygraph (Grass 7D) the signals from the isometric transducer passed a trigger function from the drive amplifier to the tachograph to record the rate.
(§2) The esterase inhibitor eserine was added to a concentration of 1·10^-6 mol/l in the organ bath before the drugs to be tested were added. The intrinsic activity of the test compounds on the heart preparation, that is their effect on heart rate (chronotropic effect) and their effect on the force of the heart beats (inotropic effect), and their possible interaction with terbutaline was studied.

The subject of data set [3] is isolated auricles from guinea-pig heart. The description is as above. More on the design: species or system guinea-pig (Dunkin Hartley, male). The protocol:
as §1, §2

The nature of data set [4]: Duration of serum levels of terbutaline after oral administration of test compounds to unanaesthetized dogs. To be noted: for concentration at 1 h: 1 hour after administration; for concentration at 2 h: 2 hours after administration; for concentration at 3 h: 3 hours after administration; for concentration at 4 h: 4 hours after administration; for concentration at 6 h: 6 hours after administration. The class given is in vivo, dogs (Beagle, male). The procedure:
Five dogs (Beagle, .male., 13-18 kg) have been used repeatedly in the study. Each dog was used at most once a week. Food was withheld from the animals the night before the experiment (water ad libitum). The test compound was dissolved in 8 ml of distilled water, and delivered into the back of the mouth by use of a syringe and a short tube. This oral supply was followed by a water rinse of 8 ml.
The blood was collected from the cephalic veins in the forelegs by use of evacuated tubes. The esterase inhibitor diisopropylfluophoshate (DFP) was added, the samples centrifugated (+5°) and the amount of terbutaline in plasma determined by a massfragmentographic analysis method. The serum level of terbutaline indicates the degree of bronchospasmolytic effect of the test compounds.
The amounts of the test substances to be administered were selected so that the level of terbutaline corresponds to the serum levels obtained and found effective in patients at clinical use, that is a level of terbutaline of at least 2 ng/ml serum for 6 to 8 hours. The doses of the test substances of the invention were selected so that the serum levels of terbutaline obtained would correspond approximately with the serum levels obtained after administration of terbutaline per se.
The test results are given in Table 1 below, where the time course of the serum level of terbutaline in the test animals is given. Each set of serum levels is the result of test in one dog. The boxed time interval represents the interval where a clinically effective serum level of terbutaline is obtained. Thus, the boxed interval represents the clinically useful duration of the test compounds.

Data set [5] has as its system isolated tracheal muscle from guinea-pig. As to the kind of experiment: In vitro test on isolated guinea-pig trachea (relaxation of pilocarpine-contracted trachea). Conditions: for EC50: Cavia porcellus, pilocarpine-contracted, eserine 1·10^-6 mol/l, read-out: Concentration of test substance producing 50% relaxation of the trachea (EC50). The procedure:
The trachea from guinea-pigs was dissected out, cut spirally and transferred to a 10 ml organ bath containing Krebs solution of 37° and aerated with carbogen. The tracheal strip was contracted by pilocarpine (4·10^-6 mol/l) producing a tension of about 1.5 g. Isometric recording was made by use of a transducer FT03 and Grass polygraph 7D. Before the administration of the test compound the esterase inhibitor eserin was added to the bath in a concentration of 1·10^-6 mol/l. The concentration of the test substances which produces 50% relaxation (EC50) of the pilocarpine contracted trachea was recorded as well as potentiating or inhibiting influence of the test substances of the invention on the relaxing effect of terbutaline. In this last mentioned test the muscle preparation was pretreated with the test compounds during 5 minutes, before the response of terbutaline was recorded.

Another data set relates to heart rate in dogs. Briefly: In vivo test on the effect on the heart rate in dogs. Conditions: oral; for Slope of the line of increase in heart rate vs. logarithm of corresponding serum conc.: serum conc. of terbutaline; for Slope of the line of increase in heart rate vs. logarithm of corresponding serum conc. / Correlation coefficient (increase in heart rate vs. logarithm of serum conc.): terbutaline 0.01-0.1 mg/kg, test compound 0.3-3 mg/kg. More on the design: species or system dogs (Beagle, male). The protocol: Five dogs (Beagle, .male., 13-18 kg) have been used repeatedly in the study. Each dog was used at most once a week. Food was withheld from the animals the night before the experiment (water ad libitum). The test compound was solved in 8 ml of distilled water, and delivered into the back of the mouth by use of a syringe and a short tube. This oral supply was followed by a water rinse of 8 ml.
The blood was collected from the cephalic veins in the forelegs by use of evacuated tubes. The esterase inhibitor diisopropylfluophosphate (DFP) was added, the samples centrifugated (+5°) and the amount of terbutaline in plasma determined by a massfragmentographic analysis method. The serum level of terbutaline indicates the degree of bronchospasmolytic effect of the test compounds.
The amounts of the test substances to be administered were selected so that the level of terbutaline, when administered per se, corresponds to the serum levels obtained and found effective in patients at clinical use, that is a level of terbutaline of at least 2 ng/ml serum for 6 to 8 hours. The doses of the test substances of the invention were selected so that the serum levels of terbutaline obtained would correspond approximately with the serum levels obtained after administration of terbutaline per se.
The heart rate was determined by a stethoscope (the mean of three determinations during a 5-minute periode) before the administration of drug and before each blood sampling.
The relative effect of the test compounds on the heart rate of the test animals was illustrated by plotting in a diagram the increase in heart rate measured at a certain serum concentration of terbutaline versus the logarithm of the said terbutaline concentration in serum. Only values before and up to the maximal increase in heart rate were used. This method will produce a graph consisting of a substantially straight line. When such a line is drawn from each test compound, it can be seen from the slope of the line how the heart rate is correlated to the serum concentration of the test compound.

Data set [6] concerns histamine-induced bronchospasm in unanaesthetized guinea-pigs. Briefly: Protecting effect against histamine-induced bronchospasm after oral administration in guinea-pigs. The class given is in vivo, guinea-pigs (Dunkin-Hartley, male). To be noted: for ED50: Cavia porcellus, 0.05 h, histamine aerosol, read-out: Dose protecting 50% of the test animals for more than 3 minutes (ED50). The procedure:
Male guinea-pigs, Dunkin-Hartley strain, 150-200 g, were used in the study. The animals were starved for about 15 hours (water ad libitum) before the administration, by a stomach tube, of test compound or vehicle (controls). To establish an adequate time period between administration and histamine exposure, the maximum plasma level of terbutaline produced from the hydrolysis of the given pro-drugs of terbutaline was determined. Thus, blood samples (in pre-experimental series) were collected from guinea-pigs at different times after the administration of the test compound and the plasma level of tarbutaline was determined by a massfragmentographic analysis. A peak in the plasma turbutaline was noted 50-60 minutes after the administration, and this time was selected as time for start of histamine exposure.
The histamine aerosol was generated by Bird inline nebulizers from a solution containing 0.02% histamine-HCl and 3% glycerole. The protecting effect was estimated from the delay in appearance of signs of anoxia in drug-treated animals. […] Drug-treated guinea-pigs without any signs of respiratory influence from the histamine during these first 3 minutes were denoted as protected.

Where [7] appears, read: dog, serum, po, 0.03 mg/kg, read-out: Serum level of terbutaline.
Setting [8] is: dog, serum, po, 0.1 mg/kg, read-out: Serum level of terbutaline.

For the compound `CC(C)(C)NCC(O)c1ccc(O)c(CO)c1` (stereo not drawn) [salbutamol, α-(tert.)-butylaminomethyl-4-hydroxy-m-xylene-α-diolsulphate], the “Duration of bronchospasmolytic activity, in words” value in data set [1] is on record as “about equal to the duration of terbutaline”.

For `CN(C)C(=O)Oc1cc(OC(=O)N(C)C)cc(C(O)CNC(C)(C)C)c1` (stereo not shown) [I, 1-[bis-(3',5'-N,N-dimethylcarbamoyloxy)phenyl]-2-N-tert.butylaminoethanol hydrochloride], the Emax in data set [2] turned out to be 0%. Also, the “Chronotropic or inotropic effect, in words” value in data set [3] (isolated guinea-pig auricles) is on record as “did not show any chronotropic or inotropic effect”. Further, the “Potentiating or inhibiting effect on the chronotropic and inotropic effect of terbutaline” value in data set [3] (test compound in same concentration as terbutaline) is listed as “No potentiating or inhibiting effect”. In addition, the “Duration of terbutaline serum level of 2 ng/ml or more” value in data set [4] (p.o., dogs) is no less than 16 h. In data set [4] (p.o., dogs, terbutaline 2 ng/ml serum or higher), the “Duration of clinically useful serum level relative to terbutaline” value was “at least twice as long”. For the same compound, in data set [5] (5 minutes pretreatment, hydrochloride), the “Potentiating or inhibiting effect of the test substance on the bronchodilating effect of terbutaline” value is “none and No potentiating or inhibiting activity”. For the same compound, in data set [5], the EC50 is greater than 20000 nM. For the same compound, in data set [5] (isolated guinea-pig trachea, hydrochloride), the “Bronchodilating effect (intrinsic), in words” value is listed as “did not produce any bronchodilating effect; also recorded: did not exert any intrinsic bronchodilating effect”. For the same compound, in the data set on heart rate in dogs (hydrochloride), the “Increase in heart rate relative to terbutaline, in words” value is given as “relatively much lower increase in heart rate than the reference compound terbutaline; also recorded: considerably reduced stimulating effect on the heart rate compared with the heart rate stimulating effect of terbutaline”. For the same compound, in the data set with heart rate in dogs, the “Slope of the line of increase in heart rate vs. logarithm of corresponding serum conc.” value worked out at 0.63 and the “Correlation coefficient (increase in heart rate vs. logarithm of serum conc.)” value stood at 0.9324. In addition, the ED50 in data set [6] was 2.7 mg/kg and 6.7 µmol/kg. Moreover, the “Bronchospasmolytic potency relative to terbutaline” value in data set [6] (on molar basis, in words) is reported as “less potent than the reference substance terbutaline”.

In the case of `CC(C)(C)NCC(O)c1cc(O)cc(O)c1` (stereo not shown) [terbutaline, 1-(3',5'-dihydroxyphenyl)-2-t-butylaminoethanol sulphate], the Emax in data set [2] was 100%. Moreover, in data set [3] (relative values, eserine 1·10^-6 mol/l), the “Inotropic effect on isolated auricle (relative values)” value is 1.0. In data set [4] (setting [7]), the concentration at 1 h is 4.8 ng/mL, the concentration at 2 h turned out to be 2.9 ng/mL, the concentration at 3 h was determined as 2.4 ng/mL and the concentration at 4 h was determined as 2.2 ng/mL. Further, in data set [4] (setting [7]), the concentration at 6 h was 1.9 ng/mL. Further, in data set [4] (setting [8]), the concentration at 1 h was found to be 5.7 ng/mL, the concentration at 2 h amounted to 13.7 ng/mL, the concentration at 3 h came to 9.2 ng/mL and the concentration at 4 h stood at 6.1 ng/mL. Besides, the concentration at 6 h in data set [4] (setting [8]) stood at 3.4 ng/mL. In data set [4] (dog, serum, po, 0.1 mg/kg, 8 hours after administration, read-out: Serum level of terbutaline), the concentration at 8 h is 2.2 ng/mL. For the same compound, the concentration at 12 h in data set [4] (dog, serum, po, 0.1 mg/kg, 12 hours after administration, read-out: Serum level of terbutaline) amounted to 1.1 ng/mL. In data set [4] (dog, serum, po, 0.1 mg/kg, 16 hours after administration, read-out: Serum level of terbutaline), the concentration at 16 h stood at 0.8 ng/mL. Further, the concentration at 24 h in data set [4] (dog, serum, po, 0.1 mg/kg, 24 hours after administration, read-out: Serum level of terbutaline) was found to be 0.35 ng/mL. Further, in data set [5], the EC50 stood at 210 ± 50 nM. Moreover, in the data set with heart rate in dogs, the “Slope of the line of increase in heart rate vs. logarithm of corresponding serum conc.” value is given as 1.04 and the “Correlation coefficient (increase in heart rate vs. logarithm of serum conc.)” value is listed as 0.9598. For the same compound, the ED50 in data set [6] is 0.4 mg/kg and 1.5 µmol/kg. For the same compound, the “Serum concentration of terbutaline necessary for desired therapeutic activity” value in data set [1] (Hornblad et al. (1976)) is given as “at least 2 ng/ml”. In addition, in data set [1] (normally obtained at clinical use of terbutaline, 2 ng/ml), the “Duration of terbutaline serum level at clinical use” value is listed as “about 8 hours”.

For `Cc1ccc(C(=O)Oc2ccc(C(O)CNC(C)(C)C)cc2OC(=O)c2ccc(C)cc2)cc1` (stereo not shown) [bitolterol], the “Duration of bronchospasmolytic activity, in words” value in data set [1] was “comparable with that of salbutamol”.
